Data set [1] concerns MCF-7 cells. In words: Cell viability assay (MTT/AlamarBlue), antiproliferative activity. In kind it is cell-based, human. The note with it: MCF-7, 72 h; for IC50: read-out: IC50 (MCF-7, 72 h). An excerpt: […]. The introduction of the halogen substituent at C-3 was examined in an effort to investigate the effect on the activity of this substituent, and subsequently optimising the cytotoxic effects against MCF-7 human breast cancer cells.
(§1) The human breast carcinoma cell line MCF-7 was purchased from the European Collection of Animal Cell Cultures (ECACC). Triple negative breast cancer Hs578T cells and its invasive variant Hs578Ts(i)8 were a kind gift from Dr. Susan McDonnell, School of Chemical and Bioprocess Engineering, University College Dublin. U266 cells were a gift from Dr. Tony McElligott, School of Medicine, St James’s Hospital, Trinity College Dublin. HT-29 cells were purchased from the European Collection of Cell Cultures (originating from a human adenocarcinoma of the colon). The human breast carcinoma cell line MDA-MB-231 and the HL-60 cells derived from a patient with acute myeloid leukaemia were both obtained from ECACC (Salisbury, UK). The SW-480 cells were a kind gift from Dr. Brian Flood, School of Biochemistry and Immunology, Trinity College Dublin. HEK-293T (normal epithelial embryonic kidney cells) were cultured in Dulbecco’s Modified Eagle’s Medium (DMEM) with GlutaMAXTM-I in the absence of non-essential amino acids. Human breast cancer MCF-7 cells and multiple myeloma U266 cells were cultured in Minimum Essential Media (MEM) with GlutaMAX™-I, supplemented with 1% (v/v) non-essential amino acids, 10% 2(v/v) foetal bovine serum (FBS) and 1% (v/v) penicillin/streptomycin 5000 U/mL. MDA-MB-231 cells were maintained in DMEM supplemented with 10% (v/v) foetal bovine serum, 2 mM L-glutamine and 100 μg/mL penicillin/streptomycin (complete medium). Colon cancer HT-29 and SW-480 and triple negative breast cancer Hs578T and its invasive variant Hs578T8i were cultured in DMEM with GlutaMAX™-I, with the same supplement in the absence of non-essential amino acids. Leukaemia HL-60 cancer cells were cultured in Roswell Park Memorial Institute Media (RPMI-1640) with GlutaMAX™-I, supplemented with 10% FCS media, and 100 μg/mL penicillin/streptomycin as above. Cell numbers were monitored using a haemocytometer. Cell culture flasks were incubated in a humidified incubator (5% CO2/95% air) at 37 °C. All cell lines were sub-cultured three times per week with trypsinisation using TrypLE Express (1X) required for adherent cell lines.
(§2) . All stock solutions and serial dilution in ethanol/DMSO were stored at -20 °C. All cells were seeded at a density of 2.5 × 10^4 cells/mL in a 96-well plate (200 μL per well). The cells were incubated in a […] atmosphere at 37 °C for 24 h, then treated with test compound (2 μL of stock solutions per 200-microlitre well) in ethanol to obtain a concentration range of 1 nM–200 μM for the study. The plates were then re-incubated for a further 72 h. Control wells contained an equivalent volume of the vehicle ethanol or DMSO (1% v/v). MTT cell viability assay: The culture medium was removed, and the cells were washed with phosphate buffered saline (PBS, […]). MTT (dissolved in PBS, […]) was added to obtain a final concentration of MTT (1 mg/mL). Cells were incubated at 37 °C for 3 h in the dark. Solubilisation was commenced by the addition of DMSO ([…]) and the cells were maintained at 20 °C in the dark for 20 min before reading the absorbance to ensure complete colour diffusion. The absorbance value of control cells (no added compound) was set to 100% cell viability and absorbance versus cell density per well was determined to assess cell viability using Graph-Pad Prism software. AlamarBlue cell viability assay: Cells were seeded in 96-well plates (e.g., MCF-7, 5 × 10^3 cells/well) and (HT-29 cells, 1 × 10^3 cells/well) and (HL-60 cells, 1 × 10^4 cells/well) with a total volume per well of 200 µL. After 24 h, cells were treated in triplicate with serial dilutions of CA-4 or β-lactam analogues (0.001–100 μM), medium alone or vehicle (1% ethanol (v/v)). […]

Another data set concerns SW480 cells. In words: Cell viability assay, antiproliferative activity. In kind it is cell-based, human. As to conditions: SW480, 10 μM. On the procedure:
[…]. The corresponding values for 10e in these cell lines were 161 nM (HL-60), 55 nM (SW480) and 135 nM (HT-29). […] […]. SW480 colon cells expressed low levels of the UDP-glucuronosyltransferase (UGT) protein compared to expression levels in HT-29 cells. […] […].
as §1, §2

The test system of data set [2] is MCF-7 cells. Description: Lactate dehydrogenase (LDH) assay for cytotoxicity. The class given is cell-based. The note with it: Homo sapiens, MCF7; MCF-7, compound concentration 10 μM, 24 h; read-out: Lactate Dehydrogenase assay: % cell lysis (cell death). On the procedure:
The toxicity and selectivity of 10n towards normal cells was investigated in the non-tumourigenic cell line HEK-293T (normal human epithelial embryonic kidney cells). […] The cytotoxic effect of selected 3-chloro-β-lactams 10e, 10f, 10i, 10n and 3,3-dichloro-β-lactams 11e and 11n in MCF-7 cells was initially determined using the lactate dehydrogenase (LDH) assay.
The cytotoxicity of selected compounds was determined using the CytoTox 96 non-radioactive cytotoxicity assay (Promega Corporation, Madison, WI, USA). Briefly, MCF-7 cells were seeded in a 96-well plate (200 μL per well), at a density of 2.5 × 10^4 cells/mL, and incubated for 24 h. The cells were then treated with selected β-lactam compounds as described above for the cell viability assay. […] Supernatant (50 μL) was removed from each well to a 96-well plate. Reconstituted ‘CytoTox 96® Reagent (50 μL) was added to each well and the plate was placed in the dark at 20 °C for 30 min. ‘Stop solution’ (50 μL) was added to each well and the samples were analysed at 490 nm using a Dynatech MR5000 plate reader. The percentage cell death at 10 μM was calculated.

In data set [3] the test system is MCF-7 cells. As to conditions: MCF-7, 72 h; previously reported compounds, footnote h; cited from earlier work.
Another data set deals with MDA-MB-231 cells. In words: Cell viability assay, antiproliferative activity. The class given is cell-based. As to conditions: Homo sapiens; MDA-MB-231, 72 h; 10e and 11n results from NCI; read-out: Antiproliferative Activity IC50 MDA-MB-231, 72 h.
From the text: Selected β-lactam compounds were next evaluated in the triple negative cell line MDA-MB-231 (Table 4). […] These cancers are difficult to treat since they are generally not responsive to hormone therapies such as the selective oestrogen receptor modulator (SERM) tamoxifen, or aromatase inhibitors such as anastrozole, or to the monoclonal antibody Herceptin, which targets the HER2 receptor. There are fewer treatment options available for TNBC compared with ER+, PR+ and HER2+ breast cancers and the prognosis is poorer. […]. The human breast carcinoma cell line MCF-7 was purchased from the European Collection of Animal Cell Cultures (ECACC). Triple negative breast cancer Hs578T cells and its invasive variant Hs578Ts(i)8 were a kind gift from Dr. Susan McDonnell, School of Chemical and Bioprocess Engineering, University College Dublin. U266 cells were a gift from Dr. Tony McElligott, School of Medicine, St James’s Hospital, Trinity College Dublin. HT-29 cells were purchased from the European Collection of Cell Cultures (originating from a human adenocarcinoma of the colon). The human breast carcinoma cell line MDA-MB-231 and the HL-60 cells derived from a patient with acute myeloid leukaemia were both obtained from ECACC (Salisbury, UK). The SW-480 cells were a kind gift from Dr. Brian Flood, School of Biochemistry and Immunology, Trinity College Dublin. HEK-293T (normal epithelial embryonic kidney cells) were cultured in Dulbecco’s Modified Eagle’s Medium (DMEM) with GlutaMAXTM-I in the absence of non-essential amino acids. Human breast cancer MCF-7 cells and multiple myeloma U266 cells were cultured in Minimum Essential Media (MEM) with GlutaMAX™-I, supplemented with 1% (v/v) non-essential amino acids, 10% 2(v/v) foetal bovine serum (FBS) and 1% (v/v) penicillin/streptomycin 5000 U/mL. MDA-MB-231 cells were maintained in DMEM supplemented with 10% (v/v) foetal bovine serum, 2 mM L-glutamine and 100 μg/mL penicillin/streptomycin (complete medium). Colon cancer HT-29 and SW-480 and triple negative breast cancer Hs578T and its invasive variant Hs578T8i were cultured in DMEM with GlutaMAX™-I, with the same supplement in the absence of non-essential amino acids. Leukaemia HL-60 cancer cells were cultured in Roswell Park Memorial Institute Media (RPMI-1640) with GlutaMAX™-I, supplemented with 10% FCS media, and 100 μg/mL penicillin/streptomycin as above. Cell numbers were monitored using a haemocytometer. Cell culture flasks were incubated in a humidified incubator (5% CO2/95% air) at 37 °C. All cell lines were sub-cultured three times per week with trypsinisation using TrypLE Express (1X) required for adherent cell lines.
as §2, with “software.” for “software. AlamarBlue cell viability assay: Cells were seeded in 96-well plates (e.g., MCF-7, 5 × 10^3 cells/well) and (HT-29 cells, 1 × 10^3 cells/well) and (HL-60 cells, 1 × 10^4 cells/well) with a total volume per well of 200 µL. After 24 h, cells were treated in triplicate with serial dilutions of CA-4 or β-lactam analogues (0.001–100 μM), medium alone or vehicle (1% ethanol (v/v)).”

Like-named read-outs stand apart in the source and are kept apart here. Marks after values point to notes of the source that are not given here.

As to `CCOc1ccc(C2C(Br)C(=O)N2c2cc(OC)c(OC)c(OC)c2)cc1` (centres unmarked) [Compound 16b, 3-Bromo-4-(4-ethoxyphenyl)-1-(3,4,5-trimethoxyphenyl)azetidin-2-one], in the data set with MCF-7 cells [1] (Homo sapiens, MCF7, 72 h), the IC50 (commonly the midpoint of a concentration-inhibition curve) was determined as 1.14 ± 0.3 µM. Besides, in the data set with SW480 cells, the “SW480 inhibition of cell viability” value was 50%.
`COc1cc(N2C(=O)C(Cl)C2c2cccc3ccccc23)cc(OC)c1OC` (centres unmarked) [Compound 10j, 3-Chloro-1-(3,4,5-trimethoxyphenyl)-4-(naphthalen-1-yl)azetidin-2-one]: the cytotoxicity at 10 µM in the data set with MCF-7 cells [2] was 4%. Besides, in the data set on MCF-7 cells [1] (Homo sapiens, MCF7, 72 h), the IC50 turned out to be 14.7 ± 2.26 µM.
`COc1ccc(C2C(Cl)C(=O)N2c2cc(OC)c(OC)c(OC)c2)cc1Cl` (centres unmarked) [Compound 10o]: the IC50 in the data set with MCF-7 cells [3] is 0.433 ± 0.05 µM.
For `COc1ccc(C2C(Br)C(=O)N2c2cc(OC)c(OC)c(OC)c2)cc1O` (centres unmarked) [Compound 16j, 3-Bromo-4-(3-hydroxy-4-methoxyphenyl)-1-(3,4,5-trimethoxyphenyl) azetidin-2-one], the “inhibition of cell viability at a concentration of 10 μM” value in the data set with MCF-7 cells [1] (10 μM) is 40% (10 μM) ^c,i. Also, the “SW480 inhibition of cell viability” value in the data set with SW480 cells was found to be 48%.
In the case of `COc1ccc(C(=O)c2cc(OC)c(OC)c(OC)c2)cc1O` [Compound 3a, phenstatin, reference compound], in the data set with MCF-7 cells [2], the cytotoxicity at 10 µM amounted to 12%.
Take `COc1cc(N2C(=O)C(Cl)C2c2ccc3ccccc3c2)cc(OC)c1OC` (centres unmarked) [Compound 10k, 3-Chloro-1-(3,4,5-trimethoxyphenyl)-4-(naphthalen-2-yl)azetidin-2-one]: the IC50 in the data set on MDA-MB-231 cells was determined as 0.205 ± 0.034 µM; with MCF-7 cells [1] (Homo sapiens, MCF7, 72 h), 0.2 µM; in the data set with MCF-7 cells [1], 0.202 ± 0.015 µM.
Consider `COc1ccc(C2N(c3cc(OC)c(OC)c(OC)c3)C(=O)C2(Cl)Cl)cc1[N+](=O)[O-]` (centres unmarked) [Compound 11m, 3,3-Dichloro-4-(4-methoxy-3-nitrophenyl)-1-(3,4,5-trimethoxyphenyl) azetidin-2-one], for which the melting point (as a rule, the temperature of the solid-liquid transition) was 117 to 119 °C. For the same compound, the IC50 in the data set on MCF-7 cells [1] (Homo sapiens, MCF7, 72 h) turned out to be 0.353 ± 0.04 µM.
On to `COc1ccc(C2C(Cl)C(=O)N2c2cc(OC)c(OC)c(OC)c2)cc1[N+](=O)[O-]` (centres unmarked) [Compound 10m, 3-Chloro-4-(4-methoxy-3-nitrophenyl)-1-(3,4,5-trimethoxyphenyl) azetidin-2-one], for which the melting point lay in the range of 93 to 95 °C. For the same compound, the IC50 with MCF-7 cells [1] (Homo sapiens, MCF7, 72 h) was 3.09 ± 0.41 µM.
In turn, `COc1cc(N2C(=O)C(Cl)(Cl)C2c2ccc([N+](=O)[O-])cc2)cc(OC)c1OC` (centres unmarked) [Compound 11d, 3,3-Dichloro-1-(3,4,5-trimethoxyphenyl)-4-(4-nitrophenyl)azetidin-2-one] came in with a melting point of 116 to 118 °C. Also, in the data set on MCF-7 cells [1] (Homo sapiens, MCF7, 72 h), the IC50 was found to be 61.6 ± 7.61 µM.
The matching figures for `COc1cc(N2C(=O)C(Cl)(Cl)C2c2ccc3ccccc3c2)cc(OC)c1OC` (centres unmarked) [Compound 11k, 3,3-Dichloro-1-(3,4,5-trimethoxyphenyl)-4-(naphthalen-2-yl)azetidin-2-one]: 164 to 166 °C and 0.322 ± 0.04 µM.
`COc1cc(N2C(=O)C(Cl)(Cl)C2c2ccccc2)cc(OC)c1OC` (centres unmarked) [Compound 11a, 3,3-Dichloro-1-(3,4,5-trimethoxyphenyl)-4-phenylazetidin-2-one] came in with a melting point of 80 to 81 °C. In addition, in the data set on MCF-7 cells [1] (Homo sapiens, MCF7, 72 h), the half-maximal inhibitory concentration (IC50) is 37.2 ± 3.21 µM.
The like results for `COc1cc(N2C(=O)C(Cl)(Cl)C2c2cccc3ccccc23)cc(OC)c1OC` (centres unmarked) [Compound 11j, 3,3-Dichloro-1-(3,4,5-trimethoxyphenyl)-4-(naphthalen-1-yl)azetidin-2-one] were, in that order, 146 to 148 °C and 7.99 ± 0.7 µM.

Values taken from publication PMC8624998, “Synthesis and Antiproliferative Evaluation of 3-Chloroazetidin-2-ones with Antimitotic Activity: Heterocyclic Bridged Analogues of Combretastatin A-4” (Pharmaceuticals, 2021).
